Data on 6 compounds can be found in US20220016102A1, “ER PROTEIN REGULATORS AND USE THEREOF” (ShanghaiTech University, priority 2018, published 2022).

Common to all, as to format: cell-based
One assay has as its system MCF-7 cell line. The assay can be described thus: Assay for determination of inhibition of MCF-7 cell proliferation (CCK-8). The settings on record: Homo sapiens, MCF7, 96 h; MCF-7 cells, 4 days, CCK-8, FIG. 3. On the procedure: MCF-7 were cultured in ncubator with 5% CO2 at 37° C. Complete medium was EMEM supplemented with 10% FBS, 100 U/mL Penicillin and Streptomycin, and 0.77 μg/mL recombinant human insulin.
10 μL CCK-8 reagent was added to the test well without adding the drugs, and after 4 h the O.D.value of the test well was recorded as the initial cell level. • After 4 days, 10 μL CCK-8 reagent was added, and the O.D.values was measured, and inhibition level was calculated.

Assay [1] concerns the target T1, ER protein (Homo sapiens, UniProt P03372).
T1 sequence (P03372 1-595): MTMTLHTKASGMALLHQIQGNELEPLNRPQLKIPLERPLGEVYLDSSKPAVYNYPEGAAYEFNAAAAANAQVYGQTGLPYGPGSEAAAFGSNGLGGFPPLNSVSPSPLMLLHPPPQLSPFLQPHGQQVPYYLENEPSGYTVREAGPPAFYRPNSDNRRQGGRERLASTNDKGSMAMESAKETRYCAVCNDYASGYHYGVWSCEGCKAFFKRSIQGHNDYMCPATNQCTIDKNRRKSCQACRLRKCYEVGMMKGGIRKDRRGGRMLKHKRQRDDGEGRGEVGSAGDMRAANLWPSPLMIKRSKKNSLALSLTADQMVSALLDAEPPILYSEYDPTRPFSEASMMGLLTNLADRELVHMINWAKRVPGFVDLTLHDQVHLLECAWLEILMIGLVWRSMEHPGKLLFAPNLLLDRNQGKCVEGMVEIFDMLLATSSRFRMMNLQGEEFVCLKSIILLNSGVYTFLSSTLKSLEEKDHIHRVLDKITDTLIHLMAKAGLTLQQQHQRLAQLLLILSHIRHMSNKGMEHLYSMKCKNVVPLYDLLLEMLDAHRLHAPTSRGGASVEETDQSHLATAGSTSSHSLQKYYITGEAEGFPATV
The assay can be described thus: Western blotting analysis of ER protein degradation in MCF-7 cell line. Also on record: western blotting detection of the level of intracellular ER protein; endogenous in cells. The conditions noted are these: MCF-7 cells, Western blot gray values vs DMSO control. On the procedure:
MCF-7 were cultured in ncubator with 5% CO2 at 37° C. Complete medium was EMEM supplemented with 10% FBS, 100 U/mL Penicillin and Streptomycin, and 0.77 μg/mL recombinant human insulin. […]
DC50 value (the drug concentration required for degrading proteins by 50%, abbreviated as DC50) reads method: comparing the gray values of the Western blotting bands for the drug treatment with the gray values of the Western blotting band for the DMSO control, and reading the drug concentration range corresponding to the gray value of the Western blotting bands for the drug treatment which is equal to half of the gray value of the Western blotting band for the DMSO control.
DC50 value could also be calculated as follows: using software ImageJ to quantify the gray values of the Western blotting bands for the drug treatment, fitting the relationship curve between drug concentrations and gray values, and from the fitted curve, calculating the drug concentration corresponding to half of the gray value of the Western blotting band for the DMSO control.
(A western blot detects proteins with antibodies after separation by electrophoresis.)

The target in assay [2] is T1, ER protein. The assay can be described thus: Western blotting analysis of ER protein degradation in T47D cell line. Set-up: western blotting detection of the level of intracellular ER protein; endogenous in cells; host or cells: T47D. The settings on record: degradation of ER protein, T47D cells, drug treatment for 16 hours, Western blot gray values vs DMSO control; read-out: DC50 (nM)/T47Dcell line. The essentials:
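T47D cells seeded at 1.5×10^5 cells/mL, adhered 24 h, then treated with compound; ER protein level read by Western blot band gray value versus DMSO control. DC50 taken as concentration giving half the control gray value, read from bands or from a fitted concentration–gray value curve.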

Molecules are shown by their SMILES. Bounds are passed on as bounds.

As to `CN(C)CCOc1ccc(/C(=C(/CCCl)c2ccccc2)c2ccccc2)cc1` [Toremifene, reference compound], the IC50 (in general, the concentration at which inhibition is half-maximal) with MCF-7 cell line worked out at 869 nM. This counts as sub-micromolar.
Regarding `Cc1ncsc1-c1ccc(CNC(=O)[C@@H]2C[C@@H](O)CN2C(=O)[C@@H](NC(=O)CCCCCCCC(=O)NCCOc2ccc(C(=C(CCCl)c3ccccc3)c3ccc(O)cc3)cc2)C(C)(C)C)cc1` [SIAIS208035, N1-(2-(4-(4-chloro-1-(4-hydroxyphenyl)-2-phenylbut-1-en-1-yl)phenoxy)ethyl)-N9-((S)-1-((2S,4R)-4-hydroxy-2-((4-(4-methylthiazol-5-yl)benzyl)carbamoyl)pyrrolidin-1-yl)-3,3-dimethyl-1-oxobutan-2-yl)nonanediamide], the DC50 on ER protein [1] and at ER protein [2] was below 10 nM in each case. This compound also registered an IC50 in the assay with MCF-7 cell line of 0.75 nM.
Turning to `CCC(=C(c1ccc(O)cc1)c1ccc(OCCNC(=O)CCCCCCCCC(=O)N[C@H](C(=O)N2C[C@H](O)C[C@H]2C(=O)NCc2ccc(-c3scnc3C)cc2)C(C)(C)C)cc1)c1ccc(O)cc1` [SIAIS208168, N1-(2-(4-(1,2-bis(4-hydroxyphenyl)but-1-en-1-yl)phenoxy)ethyl)-N10-((S)-1-((2S,4R)-4-hydroxy-2-((4-(4-methylthiazol-5-yl)benzyl)carbamoyl)pyrrolidin-1-yl)-3,3-dimethyl-1-oxobutan-2-yl)decanediamide], the DC50 at ER protein [2] is below 1 nM. In addition, the IC50 with MCF-7 cell line was 0.75 nM.
Regarding `Cc1ncsc1-c1ccc(CNC(=O)[C@@H]2C[C@@H](O)CN2C(=O)[C@@H](NC(=O)CCCCCCC(=O)N2CCN(CCOc3ccc(C(=C(CCCl)c4ccccc4)c4ccc(O)cc4)cc3)CC2)C(C)(C)C)cc1` [SIAIS251045, (2S,4R)-1-((S)-2-(8-(4-(2-(4-(4-chloro-1-(4-hydroxyphenyl)-2-phenylbut-1-en-1-yl)phenoxy)ethyl)piperazin-1-yl)-8-oxooctanamido)-3,3-dimethylbutanoyl)-4-hydroxy-N-(4-(4-methylthiazol-5-yl)benzyl)pyrrolidine-2-carboxamide], the DC50 at ER protein [2] is below 10 nM. The same compound came in with an IC50 in the assay on MCF-7 cell line of 4.2 nM.
`CCC(=C(c1ccc(O)cc1)c1ccc(OCCNC(=O)CCOCCOCCC(=O)N[C@H](C(=O)N2C[C@H](O)C[C@H]2C(=O)NCc2ccc(-c3scnc3C)cc2)C(C)(C)C)cc1)c1ccc(O)cc1` [SIAIS208173, (2S,4R)-1-((S)-16-(4-(1,2-bis(4-hydroxyphenyl)but-1-en-1-yl)phenoxy)-2-(tert-butyl)-4,13-dioxo-7,10-dioxa-3,14-diazahexadecanoyl)-4-hydroxy-N-(4-(4-methylthiazol-5-yl)benzyl)pyrrolidine-2-carboxamide]: the DC50 at ER protein [2] was below 10 nM. The compound also registered an IC50 in the assay on MCF-7 cell line of 3.6 nM.
Regarding `Cc1ncsc1-c1ccc(CNC(=O)[C@@H]2C[C@@H](O)CN2C(=O)[C@@H](NC(=O)CCOCCOCCOCCC(=O)NCCOc2ccc(C(=C(CCCl)c3ccccc3)c3ccc(O)cc3)cc2)C(C)(C)C)cc1` [SIAIS208018, (2S,4R)-1-((S)-2-(tert-butyl)-19-(4-(4-chloro-1-(4-hydroxyphenyl)-2-phenylbut-1-en-1-yl)phenoxy)-4,16-dioxo-7,10,13-trioxa-3,17-diazanonadecanoyl)-4-hydroxy-N-(4-(4-methylthiazol-5-yl)benzyl)pyrrolidine-2-carboxamide], the DC50 on ER protein [1] and at ER protein [2] was below 50 nM throughout.
